Experimental data as given in patent US12371666B2, “Nucleoside modified mRNA and uses thereof” (BOSTON MEDICAL CENTER CORPORATION, priority 2021, dated 2025).
Where two headings read alike, the source gives them in different places.

Tests used:
[1] = tested on: APAP-induced liver injury; test: Acetaminophen-induced liver injury in male and female C57BL/6J mice
Method: Images from stained sections were visualized and measured at 40× magnification on ImageJ™ (FIJI) using the area measurement tool. 2-3 lobes were measured and averaged per mouse.

[2] = tested on: centrilobular necrosis; test: APAP-NSG liver injury model dose test; details: NSG mice, 24 h after injection
[3] = intravenous NAC; cited from earlier work
[4] = tested on: APAP-induced liver injury; assay type: in vivo; details: for survival: GH 2.5 mg/kg or NAC 1000 mg/kg 8 hours post-APAP
Method: Acetaminophen-induced liver injury mouse model.
GH and NAC were both diluted in sterile PBS. GH was diluted to a concentration of 1 mg/mL and given at dosage indicated, subcutaneously with a 0.5 mL insulin syringe. NAC was diluted to a concentration of 50 mg/mL and given at 1000 mg/kg dosage, intraperitoneally with a 1 mL insulin syringe.
The statistical analyses for the graphs were carried out using two-sided student's t test for unpaired comparisons with GraphPad Prism™. The statistical analyses for the Kaplan-Meier survival curves were carried out using the Log-rank Mantel-Cox test with GraphPad Prism. A p value<0.05 was considered significant, ***<0.0001, **<0.001, *<0.05, n.s. or no result=not significant.

[5] = tested on: BEC-driven liver regeneration; details: earlier chemical screen of the inventors; cited from earlier work
[6] = tested on: Tg(fabp10a:CFP-NTR) larvae; test: Zebrafish NTR/Mtz hepatocyte ablation model of BEC-driven liver regeneration; details: for size of regenerating livers: 2 μM, treatment from A0h to R24h
Text: a. […] In the Tg(fabp10a:CFP-NTR)^5931 zebrafish line, bacterial nitroreductase (NTR) is expressed under the hepatocyte-specific fabp10a promoter^2. Since the NTR enzyme converts the non-toxic prodrug, metronidazole (Mtz), into a cytotoxic drug^59, 60 treating the transgenic zebrafish with Mtz specifically ablates hepatocytes. In this model, upon severe hepatocyte loss, BECs first dedifferentiate into LPCs, then re-differentiate into either hepatocytes or BECs, thereby leading to full liver recovery^2.
b. […] Upon targeted chemical screening using the NTR/Mtz model^61, the inventors examined the effect of VEGFR2 inhibition on BEC-driven liver regeneration. The inventors used the Notch reporter line Tg(Tp1:H2B-mCherry)^939 that expresses H2B-mCherry fusion proteins in BECs.
c. […] Given that VEGFR2 functions via at least two major signaling branches, PI3K/AKT and MEK/ERK1/2, the inventors tested which downstream branch controls BEC-driven liver regeneration using their specific inhibitors (LY294002 for PI3K and U0126 for MEK1/2). […] Given the well-known cascade of PI3K-AKT-mTOR, the inventors further examined mTOR activity in the regenerating livers.

[7] = tested on: BEC-driven liver regeneration; test: BEC-driven liver regeneration in zebrafish hepatocyte ablation model Tg(fabp10a:CFP-NTR) with Mtz; assay type: in vivo
Method: Experiments on zebrafish: All zebrafish experiments were performed under the approval of the IACUC at the University of Pittsburgh. Embryos and adult fish were raised and maintained under standard laboratory conditions. The following transgenic lines were used: Tg(fabp10a:CFP-NTR)s931, Tg(Tp1:H2B-mCherry)s939, Tg(hs:sflt1)bns80, Tg(Tp1:CreERT2)s959, and Tg(hs:loxP-mCherry-loxP-hVEGFA)mn32.
Hepatocyte ablation using the Tg(fabp10a:CFP-NTR) line: Hepatocyte ablation was performed by treating Tg(fabp10a:CFP-NTR) larvae with 10 mM Mtz in egg water supplemented with 0.2% DMSO and 0.2 mM 1-phenyl-2-thiourea from 3.5 to 5 dpf for 36 hours, as previously described^9.
SU5416 treatment: SU5416 (MedChemExpress, Monmouth Junction, NJ) was used at 1.5 μM.
Heat-shock conditions for zebrafish larvae: Both Tg(hs:sflt1) and Tg(hs:loxP-mCherry-loxP-hVEGFA) larvae were heat-shocked by transferring them into egg water pre-warmed to 38.5° C. and keeping them at this temperature for 20 minutes, as previously described^10.
Whole-mount in situ hybridization and immunostaining in zebrafish: Whole-mount in situ hybridization was performed, as previously described^11, with gc^12 and f5 probes. […]
Quantification of Bhmt+ cell number and Bhmt+ area in the zebrafish liver: For the quantification of Bhmt+ cell number, confocal projection images consisting of 6 optical-section images, with 3-μm interval, were used. Bhmt+ and Tp1:H2B-mCherry+ cells were manually counted; the number of Bhmt/Tp:H2B-mCherry double-positive cells was divided by the number of Tp1:H2B-mCherry+ cells. For the quantification of Bhmt+ liver area, confocal projection images showing Bhmt and fabp10a:CFP-NTR expression were used. Both Bhmt^+ and fabp10a:CFP-NTR+ areas in the liver were calculated by ImageJ and the former area was divided by the latter.
Image acquisition, processing, and statistical analysis of zebrafish data: Zeiss LSM700 confocal and Leica MZ16 microscopes were used to obtain image data. Confocal stacks were analyzed using the Zen 2009 software. […] Quantitative data were shown as mean±standard error of the mean (SEM).

[8] = b-estradiol treatment of males in APAP liver injury, serum ALT; assay type: in vivo, mouse; details: IP 0.5 mg/kg in corn oil, 24 hours following APAP injection
[9] = tested on: liver sex-biased genes; details: rat GH 25 ng/g BW/hr by minipump, male mice; cited from earlier work

Molecule: CC(=O)Nc1ccc(O)cc1 [APAP, acetyl-para-aminophenol]
- necrosis (H&E), males vs females ([1]; 400 mg/kg): more extensive in male livers and progressively increased overtime, whereas female livers fully recovered by 48 hours
- serum bilirubin, males vs females ([1]; 400 mg/kg): persisted for 96 hours in males but decreased after 48 hours in females
- injury and lethality ([1]; 400 mg/kg intraperitoneally, both sexes): induces injury in both sexes without lethality up to 96 hours
- serum ALT levels, males vs females ([1]; 400 mg/kg, time points post-24 hours): consistently higher in males than in females
- liver damage ([2]; 200 mg/Kg): mild
- liver damage ([2]; 400 mg/kg): severe damage and ultimately death

Molecule: CC(=O)N[C@@H](CS)C(=O)O [NAC, N-acetyl cysteine]
- patients with anaphylactoid reaction [3]: up to 18%
- survival ([4]; females): all females survived regardless of the treatment
- necrotic tissue ([4]; females, NAC 1000 mg/kg): did not show the beneficial effect of reducing necrotic tissue
- necrotic areas ([4]; males that survived 24 hours post-APAP, NAC 1000 mg/kg): significantly diminished
- apoptotic TUNEL+ area ([4]; males, 24 hours post-APAP): significantly diminished
- survival ([4]; males, 48 hours post-APAP): all NAC-treated males died by 48 hours post-APAP

Molecule: CN(C)c1ccc(/C=C2\C(=O)Nc3ccccc32)cc1 [SU4312]
- induction of early hepatocyte markers Prox1 and HNF4α in BEC-derived LPCs [5]: did not affect
- size of regenerating livers [5]: significantly reduced the size of regenerating livers
- size of regenerating livers [6]: significantly reduced the size of regenerating livers

Molecule: Cc1cc(C)c(/C=C2\C(=O)Nc3ccccc32)[nH]1 [SU5416]
- induction of early hepatocyte markers Prox1 and HNF4α in BEC-derived LPCs [5]: did not affect
- size of regenerating livers [5]: significantly reduced the size of regenerating livers
- LPC-to-hepatocyte differentiation defect by gc and f5 expression ([7]; R24h): This defect was confirmed
- expression of the hepatocyte marker Bhmt ([7]; R24h, SU5416 from A18h to R24h): greatly suppressed the expression of the hepatocyte marker Bhmt
- size of regenerating livers ([7]; SU5416 1.5 μM from A18h to R24h): significantly reduced the size of regenerating livers
- size of regenerating livers [6]: significantly reduced the size of regenerating livers
- expression of Prox1 and Hnf4a in LPCs ([6]; R6h): normal expression of Prox1 and Hnf4a
- pS6 expression in LPCs (mTORC1 activation) ([6]; R6h regenerating livers): absent
- expression of fabp10a:CFP-NTR ([6]; R24h): very weak expression
- expression of the hepatocyte marker Bhmt ([6]; R24h): almost no expression

Molecule: C[C@]12CC[C@@H]3c4ccc(O)cc4CC[C@H]3[C@@H]1CC[C@@H]2O [b-estradiol]
- ALT levels [8]: significantly decreased ALT levels

B1: cGH: rat recombinant GH given by continuous infusion via osmotic minipump (protein, UniProt P01244 27-216, looked up)
Somatotropin: FPAMPLSSLFANAVLRAQHLHQLAADTYKEFERAYIPEGQRYSIQNAQAAFCFSETIPAPTGKEEAQQRTDMELLRFSLLLIQSWLGPVQFLSRIFTNSLMFGTSDRVYEKLKDLEEGIQALMQELEDGSPRIGQILKQTYDKFDANMRSDDALLKNYGLLSCFKKDLHKAETYLRVMKCRRFAESSCAF
- liver sex-biased genes whose expression is feminized [9]: 92%
